Reference: PMC10857906, “PROTAC-mediated NR4A1 degradation as a novel strategy for cancer immunotherapy” (The Journal of Experimental Medicine, 2024)

What was measured:
Yummer1.7 melanoma = Yummer1.7 melanoma syngeneic tumor model; format: in vivo, mouse
Excerpt: (§1) 7–9-wk-old C57BL/6J, B6.129S2-Ighm^tm1Cgn/J (002288), B6.129S2-Nr4a1^tm1Jmi/J (NR4A1^−/−, 006187), and NOD-SCID interleukin-2 receptor gamma null (NSG) mice were purchased from Jackson Laboratories. For all studies involving NR-V04 and celastrol, the compounds were formulated in 50% phosal PG, 45% miglyol 810N, and 5% polysorbate 80 and administered via i.p. injection.
For syngeneic tumor models, 5 × 10^5 cells MC38, Yumm1.7, and Yummer1.7, 1 × 10^5 cells of B16F10 were resuspended in PBS and implanted into 7–9-wk-old mice subcutaneously. For the tumor inhibition experiment, mice were treated with 1.8 mg/kg NR-V04 or 0.75 mg/kg celastrol by i.p. injection twice weekly. For the immune profile experiment, once tumors reached 0.5 cm in diameter, mice were treated with 1.8 mg/kg NR-V04 by i.p. injection twice weekly. […] Blood samples were taken from the submandibular (facial) vein before each treatment and 42 days later for hematological analysis, and body weight was measured twice per week up to day 42. […]
We administered 100 μg of anti-mouse CD8α antibody (Clone: 53-6.7; Bio X Cell) or rat IgG2a isotype control to each mouse every 4 days via i.p. injection. […] Toward the end of the experiment, we collected blood samples from mice in both treatment and control groups and assessed the efficiency of CD8^+ T cell depletion using flow cytometry analysis.

NR4A1 [1] = target: T1, NR4A1 (Mus musculus, UniProt P12813); experiment: NR4A1 degradation in SM1 and SW1 mouse melanoma cell lines (immunoblotting); format: cell-based; settings: 16 h
T1 construct: from tissue; host or cells: MC38 tumours in mice (tumour lysates)
Protocol: (§2) Human melanoma cell lines: A375 and CHL-1 (gifts from Dr. D. Zhou, the University of Texas Health Science Center, San Antonio, TX, USA) were cultured in Dulbecco’s Modified Eagles’ Medium (DMEM, D5796; Sigma-Aldrich), WM164 and M229 (gifts from Dr. K.S.M. Smalley’s lab) were cultured in RPMI-1640 (R8758; Sigma-Aldrich). Mouse melanoma cell lines: B16F10 (CRL-6475, ATCC) was cultured in DMEM, SW1 and SM1 (gift from Dr. K.S.M. Smalley, Moffitt Cancer Center, Tampa, FL, USA) were cultured in RPMI. Human epithelial kidney cell lines: HEK293T (293T, CRL-3216; ATCC) and Vhl-KO-293T (gift from Dr. D. Zhou, the University of Texas Health Science Center, San Antonio, TX, USA) were cultured in DMEM. Mouse colon cancer cell lines: MC38 (ENH204-FP; Kerafast Inc.) was cultured in DMEM supplemented with 1 mM glutamine, […] non-essential amino acids (11140050; Thermo Fisher Scientific), 1 mM sodium pyruvate (11360070; Thermo Fisher Scientific), and 10 mM HEPES (15630080; Thermo Fisher Scientific). […]
(§3) Samples were lysed using radioimmunoprecipitation assay buffer (RIPA) lysis buffer (150 mM NaCl, 5 mM EDTA, 50 mM Tris pH 8.0, 0.5% sodium deoxycholate, 1% NP-40, 0.1% SDS) supplemented with 1 mM dithiothreitol and protease inhibitors. The lysates were separated by SDS-PAGE and analyzed using standard western blotting procedures ([Khan et al., 2019]). […]

NR4A1 [2] = target: T2, NR4A1 (Homo sapiens, UniProt P22736); experiment: NR4A1 degradation in WM164 and M229 human melanoma cells (immunoblotting); format: cell-based; settings: 16 h
T2 construct: NR-V04 effectively promoted the degradation of NR4A1 in two human melanoma cell lines within 16 h; endogenous in cells; host or cells: CHL-1, A375, WM164, M229 human melanoma cells
Protocol: as §2, §3

NR4A1 [3] = target: T1, NR4A1; experiment: PD: NR4A1 degradation in MC38 tumors in mice (immunoblotting); format: in vivo
Protocol: (§4) Samples were lysed using radioimmunoprecipitation assay buffer (RIPA) lysis buffer (150 mM NaCl, 5 mM EDTA, 50 mM Tris pH 8.0, 0.5% sodium deoxycholate, 1% NP-40, 0.1% SDS) supplemented with 1 mM dithiothreitol and protease inhibitors. The lysates were separated by SDS-PAGE and analyzed using standard western blotting procedures ([Khan et al., 2019]). Antibodies: human NR4A1 (ab153914, 1:1,000; Abcam), mouse NR4A1 (14-5965-82, 1:1,000; Invitrogen), NR4A2 (AV38753, 1:1,000; Sigma-Aldrich), NR4A3 (TA804893, 1: 1,000; Thermo Fisher Scientific), VHL (68547, 1:1,000; Cell Signaling), β-actin (13E5, 1:5,000; Cell Signaling), β-tubulin (9F3, 1: 5,000; Cell Signaling), and GAPDH (D16H11, 1: 5,000; Cell Signaling) were employed for protein detection.
7–9-wk-old C57BL/6J, B6.129S2-Ighm^tm1Cgn/J (002288), B6.129S2-Nr4a1^tm1Jmi/J (NR4A1^−/−, 006187), and NOD-SCID interleukin-2 receptor gamma null (NSG) mice were purchased from Jackson Laboratories. […]
For syngeneic tumor models, 5 × 10^5 cells MC38, Yumm1.7, and Yummer1.7, 1 × 10^5 cells of B16F10 were resuspended in PBS and implanted into 7–9-wk-old mice subcutaneously. […] Blood samples were taken from the submandibular (facial) vein before each treatment and 42 days later for hematological analysis, and body weight was measured twice per week up to day 42. […]

NR4A3 = target: T3, NR4A3 (Homo sapiens, UniProt Q92570); experiment: NR4A3 protein level after treatment (immunoblotting); format: cell-based
T3 construct: endogenous in cells
Protocol: as §4

Yumm1.7 tumors = experiment: Yumm1.7 melanoma syngeneic tumor model; format: in vivo, mouse; settings: Yumm1.7 (low immunogenicity), 1.8 mg/kg
Excerpt: as §1
For syngeneic tumor models, 5 × 10^5 cells MC38, Yumm1.7, and Yummer1.7, 1 × 10^5 cells of B16F10 were resuspended in PBS and implanted into 7–9-wk-old mice subcutaneously. For the tumor inhibition experiment, mice were treated with 1.8 mg/kg NR-V04 or 0.75 mg/kg celastrol by i.p. injection twice weekly. For the immune profile experiment, once tumors reached 0.5 cm in diameter, mice were treated with 1.8 mg/kg NR-V04 by i.p. injection twice weekly. For the toxicity experiment, male and female non-tumor-bearing mice were treated with 2 mg/kg NR-V04 for two doses in the first week and 5 mg/kg for another two doses in the second week. Blood samples were taken from the submandibular (facial) vein before each treatment and 42 days later for hematological analysis, and body weight was measured twice per week up to day 42. Mice were euthanized in accordance with the IACUC protocol once the largest tumors reached 2 cm in diameter, and tissues were collected for further analysis.

NR4A1 and VHL = NR4A1 and VHL (Homo sapiens, UniProt P22736+P40337); experiment: Co-IP of Flag-NR4A1 and VHL in HEK293T cells; format: cell-based; settings: 500 nM, 16 h, 0.5 μM MG132
Protocol: HEK293T cells were transfected with 3 µg Flag-NR4A1 (HG17699-CF; SinoBiological) for 36 h in Opti-MEM (31985062; Thermo Fisher Scientific) medium with 10 µl GeneTran III reagent (GT2211; Biomiga).
HEK293T cells were transfected with Flag-NR4A1 for 36 h, following with treatment of either DMSO or 500 nM […] for 16 h, together with 500 nM MG132 included to prevent protein degradation. Proteins were extracted using RIPA lysis buffer without SDS (150 mM NaCl, 5 mM EDTA, 50 mM Tris, pH 8.0, 0.5% sodium deoxycholate, and 1% NP-40) supplemented with 1% protease inhibitor cocktail (C0001; TargetMol). IP was performed using Anti-FLAG M2 Magnetic Beads (M8823; Sigma-Aldrich) as per the manufacturer’s protocol. The immunoprecipitated samples were eluted with 2× SDS sample buffer and boiled for 5 min at 95°C. The samples were then subjected to denaturation, SDS-PAGE, and immunoblotting analysis.

NR4A2 = target: T4, NR4A2 (Homo sapiens, UniProt P43354); experiment: NR4A2 protein level after treatment (immunoblotting); format: cell-based
T4 construct: endogenous in cells
Protocol: as §4

T1 sequence (P12813 whole entry): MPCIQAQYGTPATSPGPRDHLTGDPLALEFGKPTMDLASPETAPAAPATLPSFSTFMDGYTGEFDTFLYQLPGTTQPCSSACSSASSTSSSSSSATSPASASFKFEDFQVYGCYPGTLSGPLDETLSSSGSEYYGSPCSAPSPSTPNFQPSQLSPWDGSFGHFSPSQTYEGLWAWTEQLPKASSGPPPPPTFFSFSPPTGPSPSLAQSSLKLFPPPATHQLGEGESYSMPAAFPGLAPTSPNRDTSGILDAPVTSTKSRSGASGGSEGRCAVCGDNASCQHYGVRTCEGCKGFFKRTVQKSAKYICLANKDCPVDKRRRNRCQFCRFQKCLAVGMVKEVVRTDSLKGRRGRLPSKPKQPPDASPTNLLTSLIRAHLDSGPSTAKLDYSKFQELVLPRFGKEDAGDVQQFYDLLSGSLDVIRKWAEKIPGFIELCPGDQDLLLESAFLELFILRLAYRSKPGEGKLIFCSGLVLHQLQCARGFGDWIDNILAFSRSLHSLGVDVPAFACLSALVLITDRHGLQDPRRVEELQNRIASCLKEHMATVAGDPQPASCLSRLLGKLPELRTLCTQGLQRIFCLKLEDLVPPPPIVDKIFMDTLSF
T2 sequence (P22736 whole entry): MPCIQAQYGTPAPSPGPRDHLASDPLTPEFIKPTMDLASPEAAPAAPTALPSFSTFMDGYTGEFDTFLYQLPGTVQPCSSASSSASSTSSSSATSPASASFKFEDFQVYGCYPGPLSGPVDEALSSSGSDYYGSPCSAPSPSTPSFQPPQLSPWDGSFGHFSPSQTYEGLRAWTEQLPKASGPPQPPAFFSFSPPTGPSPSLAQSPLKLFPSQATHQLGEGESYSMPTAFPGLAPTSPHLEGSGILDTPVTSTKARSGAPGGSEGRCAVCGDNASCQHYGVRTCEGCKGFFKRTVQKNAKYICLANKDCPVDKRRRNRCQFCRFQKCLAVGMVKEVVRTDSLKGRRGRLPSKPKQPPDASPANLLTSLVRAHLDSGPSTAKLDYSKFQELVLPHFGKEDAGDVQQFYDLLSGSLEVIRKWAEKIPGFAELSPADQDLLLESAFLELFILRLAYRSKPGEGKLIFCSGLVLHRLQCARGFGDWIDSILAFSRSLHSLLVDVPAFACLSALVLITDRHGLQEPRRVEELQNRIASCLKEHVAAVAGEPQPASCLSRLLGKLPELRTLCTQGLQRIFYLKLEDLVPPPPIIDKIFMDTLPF
T4 sequence (P43354 whole entry): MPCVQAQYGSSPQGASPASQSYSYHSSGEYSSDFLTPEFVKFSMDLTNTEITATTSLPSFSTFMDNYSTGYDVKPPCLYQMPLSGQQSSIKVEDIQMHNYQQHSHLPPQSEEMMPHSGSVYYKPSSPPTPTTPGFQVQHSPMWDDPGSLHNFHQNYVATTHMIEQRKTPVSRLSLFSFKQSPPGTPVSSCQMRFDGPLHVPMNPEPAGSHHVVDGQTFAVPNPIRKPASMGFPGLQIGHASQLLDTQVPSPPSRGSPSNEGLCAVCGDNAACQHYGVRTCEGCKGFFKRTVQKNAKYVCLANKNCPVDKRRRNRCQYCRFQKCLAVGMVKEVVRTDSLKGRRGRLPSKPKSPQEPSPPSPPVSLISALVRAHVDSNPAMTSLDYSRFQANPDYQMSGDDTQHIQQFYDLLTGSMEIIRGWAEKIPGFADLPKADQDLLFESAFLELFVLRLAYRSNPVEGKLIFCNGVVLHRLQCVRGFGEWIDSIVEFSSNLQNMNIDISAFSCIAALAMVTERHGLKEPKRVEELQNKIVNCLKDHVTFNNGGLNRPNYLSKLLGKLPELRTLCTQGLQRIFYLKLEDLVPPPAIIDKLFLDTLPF
Sequence of NR4A1 and VHL (P22736 whole entry): as the sequence (P22736 whole entry) above
Sequence of NR4A1 and VHL (P40337 whole entry): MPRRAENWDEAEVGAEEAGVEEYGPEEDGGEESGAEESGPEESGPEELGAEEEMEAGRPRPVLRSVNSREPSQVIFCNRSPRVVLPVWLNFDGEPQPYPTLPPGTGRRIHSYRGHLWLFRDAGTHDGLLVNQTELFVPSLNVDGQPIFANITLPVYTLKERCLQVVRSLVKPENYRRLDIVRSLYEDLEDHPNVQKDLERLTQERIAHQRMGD
Sequence of NR4A1 and VHL (Q15369 whole entry partner): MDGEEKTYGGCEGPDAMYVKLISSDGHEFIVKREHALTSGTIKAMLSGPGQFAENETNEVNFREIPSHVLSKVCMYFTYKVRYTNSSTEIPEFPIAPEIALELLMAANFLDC
Sequence of NR4A1 and VHL (Q15370 whole entry partner): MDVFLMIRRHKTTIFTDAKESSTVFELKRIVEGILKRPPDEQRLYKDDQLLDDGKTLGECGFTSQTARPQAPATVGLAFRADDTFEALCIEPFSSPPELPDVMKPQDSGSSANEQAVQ
T3 sequence (Q92570 whole entry): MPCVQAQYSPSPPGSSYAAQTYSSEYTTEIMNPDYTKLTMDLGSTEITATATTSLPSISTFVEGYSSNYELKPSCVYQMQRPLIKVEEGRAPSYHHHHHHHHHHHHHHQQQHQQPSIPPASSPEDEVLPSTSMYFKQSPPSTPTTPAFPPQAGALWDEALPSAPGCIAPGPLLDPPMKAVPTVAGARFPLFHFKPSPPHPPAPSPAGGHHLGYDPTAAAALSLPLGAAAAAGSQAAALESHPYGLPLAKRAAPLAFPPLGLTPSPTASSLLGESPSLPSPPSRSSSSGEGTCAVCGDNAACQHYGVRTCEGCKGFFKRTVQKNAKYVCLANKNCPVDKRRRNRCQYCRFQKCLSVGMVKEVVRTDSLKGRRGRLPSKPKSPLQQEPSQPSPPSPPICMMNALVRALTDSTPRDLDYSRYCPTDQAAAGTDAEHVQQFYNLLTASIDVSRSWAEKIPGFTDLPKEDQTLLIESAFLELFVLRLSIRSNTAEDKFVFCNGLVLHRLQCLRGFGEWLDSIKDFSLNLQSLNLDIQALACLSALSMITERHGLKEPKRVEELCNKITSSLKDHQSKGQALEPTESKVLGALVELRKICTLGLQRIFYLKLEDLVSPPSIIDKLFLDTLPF

CC1=C(O)C(=O)C=C2C1=CC=C1[C@@]2(C)CC[C@@]2(C)[C@@H]3C[C@](C)(C(=O)NCCOCCOCCOCCOCC(=O)N[C@H](C(=O)N4C[C@H](O)C[C@H]4C(=O)N[C@@H](C)c4ccc(-c5scnc5C)cc4)C(C)(C)C)CC[C@]3(C)CC[C@]12C [NR-V04]
tumor response with CD8^+ T cell depletion (Yummer1.7 melanoma; Yummer1.7, anti-CD8 antibody 100 µg/mouse, NR-V04 from day 7): desensitized tumors to NR-V04 treatment | tumor growth (Yummer1.7 melanoma; Yummer1.7 in WT mice, 1.8 mg/kg i.p. twice a week from day 7): effectively inhibited tumor growth | NR4A1 protein level (NR4A1 [1]; SM1 mouse melanoma cells): reduced NR4A1 protein level | NR4A1 protein level (NR4A1 [1]; SW1 mouse melanoma cells): reduced NR4A1 protein level | NR4A1 protein level (NR4A1 [2]; M229 human melanoma cells): reduced NR4A1 protein level | NR4A1 protein level (NR4A1 [2]; WM164 human melanoma cells): reduced NR4A1 protein level | NR4A1 protein in MC38 tumors at termination (NR4A1 [3]; 8 doses for 4 wk, 1.8 mg/kg NR-V04 or 0.75 mg/kg celastrol, every 4 days): almost completely degraded | NR4A1 degradation in MC38 tumors (NR4A1 [3]; two doses of 1.8 mg/kg i.p., tumors collected 1-4 days after the last treatment): significant degradation of NR4A1 starting from day 1 and persisting for 3 days | NR4A3 protein level (selectivity in the NR4A family) (NR4A3): sparing NR4A2 and NR4A3 | tumor growth (Yumm1.7 tumors): no tumor inhibitory effect | Co-IP complex formation (NR4A1 and VHL): complex formation between NR4A1 and VHL | NR4A2 protein level (selectivity in the NR4A family) (NR4A2): sparing NR4A2 and NR4A3
